Results on eight molecules are retold here after article PMC7114863 (Journal of Hepatology, 2009).

The subject of data set [1] is 4′-Azidocytidine^res replicon. Put plainly: Anti-HCV assay, 4′-azidocytidine resistant replicon. The note with it: for EC50: Hepatitis C virus, read-out: EC50, 4′-Azidocytidine^res; for fold resistance, 4′-Azidocytidine^res: versus wild-type replicon.
For data set [2], the system named is VX-950^res and BILN-2061^res replicon. The experiment in a line: Anti-HCV assay, VX-950 and BILN-2061 double resistant replicon. The note with it: for EC50: Hepatitis C virus, read-out: EC50, VX-950^res and BILN-2061^res; for fold resistance, VX-950^res and BILN-2061^res: versus wild-type replicon. On the technique in general: A replicon is a self-replicating genome or part of one, used to study replication in cells.

A further data set is described as follows: Cytostatic assay. The format is cell-based. The note with it: human, HCV replicon-containing cells (Huh 5-2, HuH6 or Huh 9-13).
Data set [3] concerns J6/JFH chimeric HCV reporter virus (J6/JFH-Rluc2a-FLAG). The experiment in a line: Antiviral assay with HCVcc virus in Huh-Lunet cells. The format is cell-based, HCV genotype 2a. The note with it: Hepatitis C virus, 72 h, read-out: Anti-HCV activity EC50, J6/JFH.
A further data set has as its system 2′-C-MeCyt^res replicon. Put plainly: Anti-HCV assay, 2′-C-MeCyt resistant replicon. The note with it: for EC50: Hepatitis C virus, read-out: EC50, 2′-C-MeCyt^res; for fold resistance, 2′-C-MeCyt^res: versus wild-type replicon.
For the next data set, the system named is BILN-2061^res replicon. Put plainly: Anti-HCV assay, BILN-2061 resistant replicon. The settings on record: for EC50: Hepatitis C virus, read-out: EC50, BILN-2061^res; for fold resistance, BILN-2061^res: versus wild-type replicon.
The subject of data set [4] is HCV replicon in Huh 9-13 cells. Put plainly: HCV replicon clearance-rebound assay. The format is cell-based.
The subject of a further data set is HuH6 replicons. The experiment in a line: Anti-HCV replicon assay in HuH6 cells. The note with it: Hepatitis C virus, HuH-6, read-out: Anti-HCV activity EC50, HuH6.
The next data set has as its system GSK-4^res replicon. The experiment in a line: Anti-HCV assay, GSK-4 resistant replicon.
Another data set concerns HCV. The note with it: cited from earlier work.

The term CC50 denotes the concentration at which the toxic effect on the cells reaches its halfway point. Low values mean harm at low concentration, high ones better tolerance by the cells. Turning to `C[C@@]1(O)[C@H](O)[C@@H](CO)O[C@H]1n1ccc(N)nc1=O` [2′-C-MeCyt, 2′-C-Methylcytidine], the EC50 is 3400 ± 1100 nM in data set [1]; 1000 ± 700 nM in data set [2]; 100 ± 20 nM in data set [3]; ≥ 30000 nM with 2′-C-MeCyt^res replicon; 910 ± 1100 nM in the data set on BILN-2061^res replicon; 1020 ± 440 nM in the data set on HuH6 replicons. In addition, the “fold resistance, 4′-Azidocytidine^res” value in data set [1] is reported as “(7.9)”. Moreover, in data set [2], the “fold resistance, VX-950^res and BILN-2061^res” value was “(2.3)”. The CC50 in “Cytostatic assay” was ≥ 26000 nM. Besides, the “fold resistance, 2′-C-MeCyt^res” value in the data set with 2′-C-MeCyt^res replicon is reported as “⩾81”. Moreover, in the data set on BILN-2061^res replicon, the “fold resistance, BILN-2061^res” value was “(2.1)”. Further, the “clearance of replicon, drug alone” value in [4] (20 × EC50, Huh 9-13) is “failed to achieve clearance”. In addition, the “drug resistant replicon in cells surviving rebound conditions” value in data set [4] (after treatment, addition of G418, data not shown) was “did not contain drug resistant replicon”.

As for `[N-]=[N+]=N[C@]1(CO)O[C@@H](n2ccc(N)nc2=O)[C@H](O)[C@@H]1O` [4′-Azidocytidine, 4′-azidocytidine], the EC50 in data set [1] was ≥ 16000 nM; in the data set on 2′-C-MeCyt^res replicon it was 1200 ± 430 nM; in the data set on HuH6 replicons it was 7400 ± 3700 nM. In data set [1], the “fold resistance, 4′-Azidocytidine^res” value is listed as “(⩾5.5)”. In addition, the 50% cytotoxic concentration (CC50) in the data set “Cytostatic assay” was > 33000 nM. Also, the “fold resistance, 2′-C-MeCyt^res” value in the data set with 2′-C-MeCyt^res replicon was “(0.41)”.

Regarding `COc1ccc2c(O[C@@H]3C[C@H]4C(=O)N[C@]5(C(=O)O)C[C@H]5/C=C\CCCCC[C@H](NC(=O)OC5CCCC5)C(=O)N4C3)cc(-c3csc(NC(C)C)n3)nc2c1` [BILN-2061], in data set [1], the EC50 was found to be 14 ± 8 nM and the “fold resistance, 4′-Azidocytidine^res” value is listed as “(0.93)”. Also, in data set [2], the EC50 was found to be 800 ± 80 nM; the “fold resistance, VX-950^res and BILN-2061^res” value is reported as “(80)”. Moreover, the CC50 in the data set “Cytostatic assay” was ≥ 22000 nM. In the data set on 2′-C-MeCyt^res replicon, the EC50 is 40 ± 30 nM and the “fold resistance, 2′-C-MeCyt^res” value is “(4.0)”. Moreover, in the data set with BILN-2061^res replicon, the EC50 is 1300 ± 470 nM and the “fold resistance, BILN-2061^res” value is “(130)”. Also, in the data set with HuH6 replicons, the EC50 was determined as 4 ± 2 nM.

As for `CNC(=O)c1c(-c2ccc(F)cc2)oc2cc(N(CCO)S(C)(=O)=O)c(C3CC3)cc12` [HCV-796], the half-maximal cytotoxic concentration (CC50) in the data set “Cytostatic assay” was > 33000 nM. Moreover, the EC50 in [3] was < 100 nM; in the data set on GSK-4^res replicon (Hepatitis C virus, read-out: EC50, GSK-4^res) it was 60 ± 30 nM; with HuH6 replicons, 10 ± 3 nM. Further, the “fold resistance, GSK-4^res” value in the data set with GSK-4^res replicon (versus wild-type replicon) was “(0.75)”.

For `NC(=O)c1ncn([C@@H]2O[C@H](CO)[C@@H](O)[C@H]2O)n1` [Ribavirin], the 50% cytotoxic concentration (CC50) in “Cytostatic assay” was > 33000 nM. Besides, the EC50 with HuH6 replicons was found to be 28000 ± 16000 nM.

Take `CC(C)(C)NC(=O)N[C@H](C(=O)N1C[C@H]2[C@@H]([C@H]1C(=O)NC(CC1CCC1)C(=O)C(N)=O)C2(C)C)C(C)(C)C` (stereo partly drawn) [SCH 503034, (1R,5S)-N-[3-amino-1-(cyclobutylmethyl)-2,3-dioxopropyl]-3-[2(S)-[[[(1,1-dimethylethyl)amino]carbonyl]amino]-3,3-dimethyl-1-oxobutyl]-6,6-dimethyl-3-azabicyclo[3.1.0]hexan-2(S)-carboxamide]: the 50% cytotoxic concentration (CC50) in “Cytostatic assay” was ≥ 7400 nM. Also, the EC50 in data set [3] is 340 nM.

Consider `CC1CCC(C(=O)N(c2cc(-c3ccccc3)sc2C(=O)O)C2CCC(O)CC2)CC1` (stereo not shown) [VCH-759], for which, in the data set on HCV (HCV-infected patients), the “tolerability in early clinical studies” value is “generally well-tolerated”. Also, in the data set with HCV (after 10 days of treatment in HCV-infected patients), the “decrease in HCV RNA” value was 2.5 log10.

Consider `CCC[C@H](NC(=O)[C@@H]1[C@H]2CCC[C@H]2CN1C(=O)[C@@H](NC(=O)[C@@H](NC(=O)c1cnccn1)C1CCCCC1)C(C)(C)C)C(=O)C(=O)NC1CC1` [VX-950], for which the EC50 in data set [1] was found to be 690 ± 150 nM; in data set [2] it was 14000 ± 1400 nM; in data set [3], 290 ± 110 nM; in the data set on 2′-C-MeCyt^res replicon, 1000 ± 30 nM; with BILN-2061^res replicon, 310 ± 50 nM; in the data set on HuH6 replicons it was 1400 ± 490 nM. Also, in data set [1], the “fold resistance, 4′-Azidocytidine^res” value was “(1.2)”. The “fold resistance, VX-950^res and BILN-2061^res” value in [2] is on record as “(24)”. Besides, the CC50 in the data set “Cytostatic assay” is ≥ 24000 nM. Also, in the data set with 2′-C-MeCyt^res replicon, the “fold resistance, 2′-C-MeCyt^res” value is reported as “(1.7)”. Besides, the “fold resistance, BILN-2061^res” value in the data set with BILN-2061^res replicon is given as “(0.53)”. The “clearance of Huh 9-13 cells from their replicon, drug alone” value in [4] (five times EC50, 3 passages) was “did not achieve complete clearance”.
